The values that follow come from US10117433B2 (priority 2011, dated 2018).

Like-named read-outs stand apart in the source and are kept apart here.

Data set [1] has as its system adult worker honeybees (Apismellifera). The following applies: acute contact; cited from earlier work.
For data set [2] the test system is unchanged. The following applies: acute oral; cited from earlier work.
Data set [3] concerns central nerve chord of M. brassicae larvae. The following applies: in vivo.
Data set [4] deals with M. brassicae larvae. Further details: species or system Mamestra brassicae. The following applies: in vivo.
Data set [5] deals with tomato moth (Lacanobia oleracea). It is filed as in vivo. The method, then: Effect of Transgenic Arabidopsis Expressing Fusion Proteins when Fed to Tomato Moth (Lacanobia oleracea)
20 neonate Lacanobia oleracea larvae were placed in pots (4 replicates, 5 larvae per pot) and allowed to feed on detached leaves of transgenic Arabidopsis plants. Survival was measured over the course of a 14-day period and weights were measured at days 11 and 14. Assays were repeated giving a total sample number of 40. Treatments used were control, GNA-expressing, ButalT/GNA fusion protein expressing, and GNA/ButalT fusion protein expressing. Two independent lines expressing the ButalT/GNA fusion protein (lines 40 and 45) were used.

The next data set deals with Honeybees. The following applies: in vivo.
For data set [6], the system named is M. brassicae larvae. Further details: species or system Mamestra brassicae. The following applies: in vivo. This is another data set of the same source.
The test system of data set [7] is adult worker honeybees (Apismellifera). The following applies: in vivo, po.
For data set [8], the system named is cereal aphid Sitobion avenae. The following applies: in vivo.
The test system of the next data set is Heliothis virescens. The following applies: in vivo; cited from earlier work.
In data set [9] the test system is vertebrate-muscle preparations. The following applies: cited from earlier work.
A further data set concerns newborn mice. The following applies: mouse, in vivo; cited from earlier work.
Data set [10] has as its system M. brassicae larvae. Also noted: species or system Mamestra brassicae. The following applies: in vivo. This is another data set of the same source.
Data set [11] concerns cotton bollworm Heliothis armigera. The following applies: in vivo; cited from earlier work.
The test system of data set [12] is M. brassicae larvae. Also noted: species or system Mamestra brassicae. The following applies: in vivo. This is another data set of the same source.

With `C/C(=N\C#N)N(C)Cc1ccc(Cl)nc1` [Acetamiprid], the figures for the “reported LD50” value in data set [1] and in data set [2] were 8.09 μg/bee and 14.5 ug/bee, respectively.
As to Galanthus nivalis agglutinin [GNA], in data set [3], the “bands in nerve tissue (anti-GNA Western blot)” value was “not observed”; the “presence in nerve chord and haemolymph samples (anti-GNA Western blot)” value is on record as “positive immunoreactivity”. Further, in the data set with M. brassicae larvae [4], the “average weight of surviving larvae reduced by” value was determined as 45% and the “survival (larvae remained)” value was found to be 80%. In data set [5] (first assay (FIG. 16), 14 days, ButalT/GNA line 40, GNA line 3, control 93%), the survival is given as 90%. Besides, the “survival / larval mortality compared to controls” value in data set [5] (neonate larvae, conclusions) is “no effect on larval mortality”. Moreover, the “reduction in mean weight” value in [5] (second assay, days 11 and 14, vs control) was “approx. 50%”. The toxicity by injection entry in the data set with Honeybees is recorded as “higher toxicity than FP5”. Besides, in the data set on M. brassicae larvae [6], the “effect upon larvae when injected” value is on record as “no effect”. Moreover, in data set [7], the LD50 is recorded as above 100 μg/bee, the LD50 to honeybees result is reported as “greater than 100 ug/bee” and the effects on mortality result is reported as “smaller effects on mortality than acetamiprid”. In addition, the “survival compared to control treatments” value in [8] is on record as “does not have a significant effect on the survival”.
As for ω-ACTX-Hv1a, in the data set with Heliothis virescens, the PD50 is on record as 250 pmol/g. Further, the “effect on vertebrate-muscle preparations” value in [9] is “no effect”. Besides, the “effect on newborn mice” value in the data set with newborn mice is recorded as “harmless”. In the data set on M. brassicae larvae [10], the “larval feeding / larval growth” value was “no reduction in larval growth”. Further, the oral activity entry in the data set with M. brassicae larvae [10] (po) is recorded as “not orally active”. The ED50 in data set [11] is given as 3 nmol/g. In addition, the “symptoms after injection of higher doses” value in the data set with M. brassicae larvae [6] was “displayed symptoms of paralysis”. Further, the larval growth result in the data set on M. brassicae larvae [12] is “no effect on larval growth”.
